Values after ≈ are worked out from the molar mass of the structure shown. Like-named read-outs stand apart in the source and are kept apart here.
Assays:
[1] = Evaluation of the acoustic cavitation promoting effect (subharmonic signal upon ultrasound irradiation); settings: 0.5 MHz and 1 MHz; for subharmonic generation: 0.1 mmol/L in PBS (pH 7.4), acoustic intensity 5 W/cm^2, 1 minute
Procedure: A 0.1 mmol/L solution of RB—Cn in PBS (pH 7.4, containing 1% DMF) was sealed in a polyethylene bag (30×25 mm, 0.03 mm thick) and irradiated with ultrasonic waves of 0.5 MHz and 1 MHZ simultaneously under conditions of an acoustic intensity of 5 or 10 W/cm^2 and an exposure time of 1 minute, using an experimental apparatus having the constitution shown in FIG. 4.
In FIG. 4, 10 indicates degassed water, 11—a water tank, 12—a polyethylene bag, 13—a sample solution, 14-1 and 14-2 each—a holdfast, 15—a hanger, 16—a hydrophone, 17—a supporter, 18—an ultrasound transducer, 19—a supporter, 20—a signal processor, 21—an amplifier, 22—a spectrum analyzer, 23—an amplifier, and 24—a wave generator.
The acoustic signals at the subharmonic (250 kHz) characteristic to acoustic cavitation were measured at one-second intervals using a focusing type hydrophone, the root mean square of the signal amplitudes during the irradiation period was calculated and this was used as an indication of acoustic cavitation.
For comparison, a 0.1 mmol/L solution of RB in PBS (pH 7.4) was also measured for subharmonic signals. […] For each of RB and the RB—Cn species containing 3, 6 or 18 carbon atoms in the alkyl group (RB—C3, RB—C6 and RB—C18), the relation between acoustic intensity and subharmonic intensity is shown in FIG. 6.
Using a 0.1 mmol/L solution of RB—COOH—Cn in PBS (pH 7.4), the acoustic cavitation promoting effect was evaluated in the same manner as in Test Example 5.
Using a 0.1 mmol/L solution of xanthene dye sensitizer—COOH—Cn in PBS (pH 7.4), the acoustic cavitation promoting effect was evaluated in the same manner as in Test Example 5.

[2] = test system: murine experimental tumor Colone 26; assay: Evaluation of the accumulation of RB—COOH—Cn in tumor tissues (fluorescence intensity ratio); assay type: in vivo; settings: tumor bearing CDF1 mice, intravenous, 10 mg/kg, until 120 minutes after administration, FIG. 3
Procedure: (§1) Tumor bearing mice were intravenously administered with RB or RB—Cn and, after the lapse of a predetermined period, tumor tissues were excised. The fluorescence spectrum of the agent extracted from the tumor tissues was measured and the concentration of the agent was estimated from the fluorescence intensity to thereby evaluate the accumulability in tumor tissues. Mice subjected to the test were 5-week male CDF1 mice one to two weeks after subcutaneous implantation of small pieces (e.g. 1 mm^3 pieces) of the murine experimental tumor Colone 26. The dose of the agent was 10 mg/kg and methanol or chloroform was used for the extraction.
Tumor bearing mice were intravenously administered with RB or RB—COOH—Cn and, after the lapse of a predetermined period, tumor tissues were excised. The fluorescence intensity of the tumor tissues was measured and the accumulability in tumor tissues was evaluated based on the ratio of that intensity and the fluorescence intensity of an internal standard (fluorescence intensity ratio). The mice used in the test and the dose of the agent were the same as in Test Example 3. As an example of the results, the relation between the time from agent administration to mice to tumor tissue excision and the fluorescence intensity ratio is shown in FIG. 3 for each of RB and RB—COOH—Cn species containing 2, 3, 7 or 15 carbon atoms in the alkyl group (RB—COOH—C2, RB—COOH—C3, RB—COOH—C7 and RB—COOH—C15).

[3] = test system: murine experimental tumor Colone 26; assay: Evaluation of the accumulation of RB—Cn in tumor tissues (agent extracted, fluorescence); assay type: in vivo; settings: tumor bearing CDF1 mice, intravenous, 10 mg/kg, until 120 minutes after administration, FIG. 2
Procedure: as §1

[4] = Preparation of RB solution and RB lipophilic derivative solutions for administration in vivo; assay type: physicochemical; settings: target 10 mg/mL (RB—Cn 1 mg/mL), final pH about 7.4
Procedure: A solution each of RB (Formula 9), RB—Cn—COOH (Formula 11) and RB—COOH—Cn (Formula 12) with a concentration of 10 mg/mL and a solution of RB—Cn (Formula 10) with a concentration of 1 mg/mL were prepared.
RB: 50 mg of RB was dissolved in PBS (pH 7.4) and the whole volume was made 5 mL.
RB—Cn: 4 mg of RB—Cn was dissolved in 0.4 mL of DMSO. Then, 0.4 mL of ethanol, 0.3 mL of 0.1 N NaOH aqueous solution and 1.0 mL of PBS (pH 7.4) were added and, further, 0.1 N hydrochloric acid was added to adjust the pH to about 7.4 and the whole volume was made 4 mL by further adding PBS (pH 7.4). The DMSO accounted for 10% of the whole solution.
RB—C7—COOH: 30 mg of RB—C7—COOH was dissolved in 1.2 mL of 0.1 N NaOH aqueous solution, 0.1 N hydrochloric acid was added to adjust the pH to about 7.4 and the whole volume was made 3 mL by further adding PBS (pH 7.4).
RB—COOH—Cn: n=2 to 10:30 mg of each RB—COOH—Cn was dissolved in 1.2 mL of 0.1 N NaOH aqueous solution, 0.1 N hydrochloric acid was added to adjust the pH to about 7.4 and the whole volume was made 3 mL by further adding PBS (pH 7.4). […].
n=11 to 20:30 mg of each RB—COOH—Cn was dissolved in 0.6 mL of DMF. Then, 1.2 mL of 0.1 N NaOH aqueous solution was added, 0.1 N hydrochloric acid was added to adjust the pH to about 7.4 and the whole volume was made 3 mL by further adding PBS (pH 7.4).

[5] = Solubility measurement of RB and lipophilic derivatives of RB in PBS and 1-octanol; assay type: physicochemical; settings: for solubility: thermodynamic from solid
Procedure: The sonochemical sensitizers of the invention, namely RB—COOH—Cn species (n being the number of carbon atoms in the straight alkyl group) were examined for their solubility in an aqueous solution and in an organic solvent. The aqueous solution used was a phosphate buffer solution (hereinafter, PBS) with a pH of 7.4 and the organic solvent used was 1-octanol.
First, saturated solutions of each RB—COOH—Cn in PBS and in 1-octanol were prepared at 25° C. and each solution was measured for its ultraviolet-visible absorption spectrum. Based on the molar absorptivity determined beforehand by measuring the ultraviolet-visible absorption spectrum of a solution having a known concentration, the agent concentration in the saturated solution was estimated.
For comparison, the starting material RB and two kinds of RB derivative, for which an attempt was made to increase the lipophilicity by a method other than that of the invention, namely rose bengal alkyl esters (hereinafter, RB—Cn, n being the number of carbon atoms in the alkyl group) and rose bengal fatty acid esters (hereinafter, RB—Cn—COOH, n being the number of carbon atoms in the methylene chain), were also subjected to solubility measurement.
In the solubility measurement, the respective derivatives having an equal number of carbon atoms in the alkyl group (n=7) were used.

[6] = Evaluation of the photosensitivity (photo-oxidation reaction of iodide); settings: light of 365 nm, DMF solution, FIG. 9 / FIG. 10
Procedure: The photo-oxidation reaction of iodide as represented by Equation 4 was carried out in the presence of RB—Cn and the photosensitivity of the compound was evaluated.
A mixed solution composed of 2 mL of a 0.1 mol/L solution of potassium iodide in DMF and 1 mL of a 1 mmol/L solution of RB—Cn in DMF was placed in a glass dish (48 mm in diameter) and irradiated with light of 365 nm for a predetermined period. The absorbance, at 350 nm, of the sample was measured before and after exposure. 350 nm is the absorption maximum wavelength of I3^—. Based on the absorbance (A), the concentration of I3^— was calculated using Equation 5.
The procedure of Test Example 8 was followed in the presence of RB—COOH—Cn.

[7] = Evaluation for contrast-enhancing effect (ultrasound imaging); assay type: in vivo; settings: dog, 5 mL of 0.1 mmol/L solution intravenously, 5 MHz linear probe, mode B
Procedure: Using an ultrasound diagnostic system equipped with a linear probe with a central frequency of 5 MHz, 5 mL of the solution of RB—COOH—C7 obtained in Test Example 10 was intravenously administered to a dog (weighing 12 kg, 2 years old) while ultrasonically scanning the hepatic region of the dog with mode B. Immediately thereafter, 5 mL of physiological saline was administered. After administration, the hepatic artery and aorta were imaged and the imaging lasted for about 30 seconds.

[8] = Evaluation for bubble stability; assay type: physicochemical; settings: 0.1 mmol/L in PBS (pH 7.4), 4 mL shaken 5 minutes
Procedure: Using a 0.1 mmol/L solution of RB—COOH—C7 in PBS (pH 7.4), the stability of bubbles was measured. 4 mL of the solution of RB—COOH—C7 was placed in a test tube having a length of […] and shaken on a shaker for 5 minutes and then the time until the disappearance of the bubbles was measured. PBS was used as a control.

Molecule: CCCCCCC(OC(=O)c1ccccc1-c1c2cc(I)c(=O)c(I)c-2oc2c(I)c(O)c(I)cc12)C(=O)O (stereo not drawn) [EB—COOH—C7, Erythrosine B-α-carboxyheptyl ester]
- subharmonic generation [1]: observed

Molecule: O=C([O-])c1c(Cl)c(Cl)c(Cl)c(Cl)c1-c1c2cc(Br)c(=O)c(Br)c-2oc2c(Br)c([O-])c(Br)cc12.[Na+].[Na+] [PB, phloxine B sodium salt]
- subharmonic generation [1]: observed

Molecule: O=C(O)CCCCCCCOC(=O)c1c(Cl)c(Cl)c(Cl)c(Cl)c1-c1c2cc(Br)c(=O)c(Br)c-2oc2c(Br)c(O)c(Br)cc12 [PB—COOH—C7, Phloxine B-α-carboxyheptyl ester]
- subharmonic generation [1]: observed

Molecule: O=C([O-])c1c(Cl)c(Cl)c(Cl)c(Cl)c1-c1c2cc(I)c(=O)c(I)c-2oc2c(I)c([O-])c(I)cc12.[Na+].[Na+] [RB, rose bengal sodium salt]
- occurrence/concentration in tumor tissues (fluorescence intensity ratio to internal standard) [2]: hardly observed
- agent concentration in tumor tissues [3]: hardly observed
- dissolution behaviour when preparing solution for administration in vivo [4]: soluble as it was in PBS (pH 7.4)
- subharmonic generation [1]: observed
- solubility ([5]; 1-octanol, organic solvent or mixture, saturated solution at 25° C., organic solvent, read-out: solubility in 1-octanol): < 0.1 mM
- solubility ([5]; phosphate buffer solution (PBS), pH 7.4, aqueous buffer, saturated solution at 25° C., aqueous solution, read-out: solubility in PBS (pH 7.4)): 220 mM
- solubility in 1-octanol ([5]; saturated solution at 25° C., organic solvent, sodium salt): <0.1 mM
- relation between light exposure time and yield in photo-oxidation of iodide [6]: almost proportional to the exposure time

Molecule: CCCCCCOC(=O)c1c(Cl)c(Cl)c(Cl)c(Cl)c1-c1c2cc(I)c(=O)c(I)c-2oc2c(I)c(O)c(I)cc12 [RB—C6]
- agent concentration in tumor tissues [3]: higher as compared with RB
- subharmonic generation [1]: observed
- relation between light exposure time and yield in photo-oxidation of iodide [6]: almost proportional to the exposure time

Molecule: CCCCCCCCCCCCCCCCCCOC(=O)c1c(Cl)c(Cl)c(Cl)c(Cl)c1-c1c2cc(I)c(=O)c(I)c-2oc2c(I)c(O)c(I)cc12 [RB—C18]
- agent concentration in tumor tissues [3]: higher as compared with RB
- subharmonic formation ([1]; 0.1 mmol/L in PBS (pH 7.4, 1% DMF), ultrasound intensity 10 W/cm^2, 1 minute): no subharmonic formation was observed
- relation between light exposure time and yield in photo-oxidation of iodide [6]: almost proportional to the exposure time

Molecule: CCCCCCCCCCOC(=O)c1c(Cl)c(Cl)c(Cl)c(Cl)c1-c1c2cc(I)c(=O)c(I)c-2oc2c(I)c(O)c(I)cc12 [RB—CLO]
- relation between light exposure time and yield in photo-oxidation of iodide [6]: almost proportional to the exposure time

Molecule: O=C(O)CCCCCCCOC(=O)c1c(Cl)c(Cl)c(Cl)c(Cl)c1-c1c2cc(I)c(=O)c(I)c-2oc2c(I)c(O)c(I)cc12 [RB—COOH—C7, Rose bengal-α-carboxyheptyl ester]
- occurrence/concentration in tumor tissues (fluorescence intensity ratio to internal standard) [2]: higher than that of RB
- duration of imaging of hepatic artery and aorta [7]: about 30 seconds
- subharmonic generation [1]: observed
- solubility in the organic solvent relative to that of RB—C7—COOH ([5]; 1-octanol): about 5 times
- solubility in 1-octanol (organic solvent) relative to the solubility of RB ([5]; 25° C.): 120 times
- solubility in the aqueous solution relative to that of RB—C7 ([5]; PBS (pH 7.4), 25° C.): 83 times
- solubility in PBS (pH 7.4) ([5]; saturated solution at 25° C., aqueous solution): 0.83 mmol/l
- solubility in 1-octanol ([5]; saturated solution at 25° C., organic solvent): 12 mM (≈ 13.4 mg/mL)
- relation between light exposure time and yield in photo-oxidation of iodide [6]: almost proportional to the exposure time
- time bubbles remain after shaking [8]: about 120 seconds

Molecule: CCCCCCCCCCCCCCOC(=O)c1c(Cl)c(Cl)c(Cl)c(Cl)c1-c1c2cc(I)c(=O)c(I)c-2oc2c(I)c(O)c(I)cc12 [RB—Cl4]
- relation between light exposure time and yield in photo-oxidation of iodide [6]: almost proportional to the exposure time

Molecule: Rose bengal-α-carboxyethyl ester [RB—COOH—C2]
- occurrence/concentration in tumor tissues (fluorescence intensity ratio to internal standard) [2]: hardly observed
- relation between light exposure time and yield in photo-oxidation of iodide [6]: almost proportional to the exposure time

Molecule: Rose bengal-α-carboxypentadecyl ester [RB—COOH—C15]
- occurrence/concentration in tumor tissues (fluorescence intensity ratio to internal standard) [2]: higher than that of RB
- subharmonic generation [1]: observed
- relation between light exposure time and yield in photo-oxidation of iodide [6]: almost proportional to the exposure time

Molecule: erythrosine B sodium salt [EB]
- subharmonic generation [1]: observed

From US6572839B2, “Sensitizer for tumor treatment” (Hitachi, Ltd., priority 2000, dated 2003)
